{
  "source": "patent US4818770A",
  "about": "“Prevention of a plant disease by specific inhibition of fungal polyamine biosynthesis” (priority 1986, dated 1989)",
  "key": {"[1]": {"system": "Colletotrichum lagenarium", "assay": "Infection of National Pickling cucumber plants by cucumber anthracnose"}, "Podosphaera leucotricha": {"system": "Podosphaera leucotricha", "assay": "Infection of apple by powdery mildew", "format": "in vivo"}, "PA titers of bean leaves": {"system": "PA titers of bean leaves", "assay": "Polyamine titers in leaves of sprayed bean plants", "format": "in vivo, Phaseolus vulgaris", "details": "sprays 0.01, 0.1 and 1.0 mM; 1, 3 and 8 days later", "protocol": "PA analysis was performed on leaf samples collected from inhibitor-sprayed bean plants. Leaf samples were ground in prechilled mortars with 10% (w/v) HClO4 at a ratio of 200 mg fresh weight leaf per ml HClO4. Homogenates were centrifuged at 26,00 g for 20 minutes at 4° C. The clear supernatant fractions were used for dansylation according to a procedure previously described. Briefly, 0.4 ml of freshly prepared dansyl (Diaminonaphthylsulfonyl)-C1 (Sigma), 5 mg/ml in acetone, and 0.2 ml of saturated Na2 CO3 were added to 0.2 ml of the supernatant fraction. The dansylated PA were extracted with 0.25 ml benzene and the clear benzene layer was used for PA determinations by TLC on LK6D high resolution silica gel plates (Whatman). After development in chloroform:triethylamine (25:2 v/v) for about 1 hour and location by fluorescence under a UV lamp, the dansylpolyamine bands were scraped off, eluted in 4 ml of ethyl acetate and quantified with an Aminco-Bowman fluorimeter.\nThe effect of DFMO and DFMA sprays (0.01, 0.1, and 1.0 mM) on PA titers was also examined. Unifoliolate leaves were sprayed in the usual way and examined 1 and 3 days later, while the first trifolioloate leaves, unexpanded ata the time of spray and themselves unsprayed, were examined 8 days later."}, "Verticillium dahliae [2]": {"system": "Verticillium dahliae", "assay": "Verticillium wilt symptoms in Bonny Best tomato after foliar spray", "format": "in vivo", "details": "concentrations up to 10 mM"}, "bean rust uredospores": {"system": "bean rust uredospores", "assay": "Germination and differentiation of bean rust uredospores in agar", "format": "cell-based, Uromyces phaseoli", "details": "for inhibition at 100 µM / inhibition at 500 µM / inhibition at 1000 µM / inhibition at 5000 µM: Uromyces phaseoli"}, "Erysiphe graminis": {"system": "Erysiphe graminis", "assay": "Wheat powdery mildew infection, colonies per plant", "details": "concentrations up to 5 mM", "protocol": "With wheat powdery mildew (E. graminis) 10-day-old seedlings were sprayed with solutions of DFMA or DFMO from 0.01 to 5.0 mM before and after inoculation of the plants with conidia. Inoculation occurred naturally in the greenhouse by distributing infected plants among the experimental plants for 24 hours. Infection was evaluated 10 days after inoculation by counting mildew colonies."}, "[3]": {"system": "Puccinia graminis fsp avenae", "format": "in vivo"}, "[4]": {"system": "bean plants (Phaseolus vulgaris cv Pinto)", "assay": "Effect of sprays on growth and appearance of bean plants", "format": "in vivo", "details": "sprays 0.01, 0.1 and 1.0 mM", "experimental": "Unifoliolate leaves of 10-day-old bean seedlings were sprayed (400 ul per leaf) with DFMO or alpha-difluoromethylarginine (DFMA) at concentrations of 0.01-5 mM, before or after inoculation with uredospores of the bean rust, Uromyces phaseoli, Race 0. The inhibitor solutions were prepared in 0.01% Tween 20, with the pH adjusted to 7.0. Control plants without inhibitor were sprayed similarly and were allowed to dry before inoculation with the pathogen. After inoculation with rust uredospores (25 mg/100 ml of 0.01% Tween 20) all plants were placed in dew chambers (100% relative humidity) for 16 hours at 19° C. in total darkness. After exposures to inhibitors and uredospores, all plants were returned to the greenhouse and arranged randomly. Disease severity was evaluated 7 days after inoculation by counting foliar lesions. In control plants and those treated with low concentrations of DFMO, uredospores were collected randomly from each treatment to determine percent germination and pathogenicity. For determination of germination, spores were dusted onto Petri plates containing 10 mM 2-(N-morpholino)ethanesulfonic acid (Mes) at pH 7.0, 3 mM CaCl2, 2 mM MgSO4, and 1% purified agar, and incubated for 3 hr at 19° C. in the light."}, "[5]": {"system": "Botrytis sp., B. cinerea, Rhizoctonia solani, Monilinia fructicola", "details": "cited from earlier work"}, "Verticillium dahliae [6]": {"system": "Verticillium dahliae", "assay": "Radial mycelial growth of Verticillium dahliae in vitro", "format": "cell-based", "details": "Verticillium dahliae, read-out: inhibition of radial growth relative to that observed with DFMO"}, "Puccinia sorghi": {"system": "Puccinia sorghi", "assay": "Infection by corn rust", "format": "in vivo"}, "Uromyces phaseoli": {"system": "Uromyces phaseoli", "assay": "Bean rust lesions on unifoliolate leaves of Pinto bean sprayed before or after inoculation", "format": "in vivo"}, "Erysiphe polygoni": {"system": "Erysiphe polygoni", "assay": "Infection by bean powdery mildew", "format": "in vivo"}, "[7]": {"system": "P. recondita f. sp. tritici", "format": "in vivo, Puccinia recondita f. sp. tritici"}, "[8]": {"details": "read-out: Differentiation % Inhibiton"}, "[9]": {"details": "read-out: Germination % Inhibition"}, "[10]": {"details": "postinoculation exposure, inhibitor 1.0 mM"}, "[11]": {"details": "postinoculation exposure, inhibitor 5.0 mM"}, "[12]": {"details": "preinoculation exposure, inhibitor 1.0 mM"}, "[13]": {"details": "preinoculation exposure, inhibitor 5.0 mM"}},
  "note": "Where “and” joins values, the source holds several entries; their conditions need not be identical. Equal entries are not always repeated. Where two headings read alike, the source gives them in different places.",
  "data": [
    {"smiles": "N=C(N)NCCC[C@](N)(C(=O)O)C(F)F", "note": "[DFMA, alpha-difluoromethylarginine]", "values": [
      {"measurement": "Lesions per plant", "setting": "[1]; 1.0 mM", "value": 73, "unit": "per plant"},
      {"measurement": "Percent control", "setting": "[1]; 1.0 mM", "value": 10, "unit": "%"},
      {"measurement": "Lesions per plant", "setting": "[1]; 5.0 mM", "value": 71, "unit": "per plant"},
      {"measurement": "Percent control", "setting": "[1]; 5.0 mM", "value": 12, "unit": "%"},
      {"measurement": "Lesions per plant", "setting": "[1]; 10.0 mM", "value": 73, "unit": "per plant"},
      {"measurement": "Percent control", "setting": "[1]; 10.0 mM", "value": 10, "unit": "%"},
      {"measurement": "Percent control", "setting": "Podosphaera leucotricha; 1 mM", "value": 0.8, "unit": "%"},
      {"measurement": "Percent control", "setting": "Podosphaera leucotricha; 5 mM", "value": 28.8, "unit": "%"},
      {"measurement": "Percent control", "setting": "Podosphaera leucotricha; 10 mM", "value": 0.0, "unit": "%"},
      {"measurement": "control of apple powdery mildew", "setting": "Podosphaera leucotricha; 1-10 mM applications", "value": "essentially ineffective"},
      {"measurement": "PA levels in treated leaves", "setting": "PA titers of bean leaves", "value": "no significant reductions"},
      {"measurement": "symptom severity and time of symptom expression", "setting": "Verticillium dahliae [2]", "value": "did not alter either symptom severity nor time of symptom expression"},
      {"measurement": "Differentiation %", "setting": "bean rust uredospores; 0.1 mM", "value": 46, "unit": "%"},
      {"measurement": "Germination %", "setting": "bean rust uredospores; 0.1 mM", "value": 36, "unit": "%"},
      {"measurement": "Differentiation %", "setting": "bean rust uredospores; 0.5 mM", "value": 30, "unit": "%"},
      {"measurement": "Germination %", "setting": "bean rust uredospores; 0.5 mM", "value": 36, "unit": "%"},
      {"measurement": "Differentiation %", "setting": "bean rust uredospores; 1.0 mM", "value": 23, "unit": "%"},
      {"measurement": "Germination %", "setting": "bean rust uredospores; 1.0 mM", "value": 31, "unit": "%"},
      {"measurement": "Differentiation %", "setting": "bean rust uredospores; 5.0 mM", "value": 18, "unit": "%"},
      {"measurement": "Germination %", "setting": "bean rust uredospores; 5.0 mM", "value": 26, "unit": "%"},
      {"measurement": "inhibition at 100 µM", "setting": "bean rust uredospores; [8]", "value": 22, "unit": "%"},
      {"measurement": "inhibition at 500 µM", "setting": "bean rust uredospores; [8]", "value": 49, "unit": "%"},
      {"measurement": "inhibition at 1000 µM", "setting": "bean rust uredospores; [8]", "value": 61, "unit": "%"},
      {"measurement": "inhibition at 5000 µM", "setting": "bean rust uredospores; [8]", "value": 69, "unit": "%"},
      {"measurement": "inhibition at 100 µM", "setting": "bean rust uredospores; [9]", "value": 14, "unit": "%"},
      {"measurement": "inhibition at 500 µM", "setting": "bean rust uredospores; [9]", "value": 14, "unit": "%"},
      {"measurement": "inhibition at 1000 µM", "setting": "bean rust uredospores; [9]", "value": 26, "unit": "%"},
      {"measurement": "inhibition at 5000 µM", "setting": "bean rust uredospores; [9]", "value": 38, "unit": "%"},
      {"measurement": "control of wheat powdery mildew infection", "setting": "Erysiphe graminis", "value": "ineffective"},
      {"measurement": "Percent control", "setting": "[3]; 0.01 mM", "value": 40.4, "unit": "%"},
      {"measurement": "Percent control", "setting": "[3]; 0.025 mM", "value": 32.6, "unit": "%"},
      {"measurement": "Percent control", "setting": "[3]; 0.065 mM", "value": 41.9, "unit": "%"},
      {"measurement": "Percent control", "setting": "[3]; 0.10 mM", "value": 53.1, "unit": "%"},
      {"measurement": "Percent control", "setting": "[3]; 0.13 mM", "value": 61.5, "unit": "%"},
      {"measurement": "Percent control", "setting": "[3]; 0.16 mM", "value": 57.0, "unit": "%"},
      {"measurement": "Percent control", "setting": "[3]; 0.20 mM", "value": 63.8, "unit": "%"},
      {"measurement": "Percent control", "setting": "[3]; 1.00 mM", "value": 86.0, "unit": "%"},
      {"measurement": "effectiveness against oat stem rust compared with DFMO", "setting": "[3]; in vivo", "value": "nearly as effective as DFMO"},
      {"measurement": "growth of the bean plants", "setting": "[4]", "value": "no effect"},
      {"measurement": "mycelial growth in vitro", "setting": "[5]; Botrytis sp., B. cinerea, Rhizoctonia solani, Monilinia fructicola", "value": "inhibited mycelial growth"},
      {"measurement": "relative inhibition of fungal growth in vitro", "setting": "[5]; Plant Cell Physiol. (1985), vol. 26, 683-692", "value": "more effective inhibitor of fungal growth than was DFMO"},
      {"measurement": "inhibition at 500 µM", "setting": "Verticillium dahliae [6]", "value": "~50", "unit": "%"},
      {"measurement": "Percent control", "setting": "Puccinia sorghi; 0.01 mM", "value": 13.0, "unit": "%"},
      {"measurement": "Percent control", "setting": "Puccinia sorghi; 0.025 mM", "value": 7.2, "unit": "%"},
      {"measurement": "Percent control", "setting": "Puccinia sorghi; 0.065 mM", "value": 0.0, "unit": "%"},
      {"measurement": "Percent control", "setting": "Puccinia sorghi; 0.10 mM", "value": 0.0, "unit": "%"},
      {"measurement": "Percent control", "setting": "Puccinia sorghi; 0.13 mM", "value": 9.3, "unit": "%"},
      {"measurement": "Percent control", "setting": "Puccinia sorghi; 0.16 mM", "value": 27.1, "unit": "%"},
      {"measurement": "Percent control", "setting": "Puccinia sorghi; 0.20 mM", "value": 14.0, "unit": "%"},
      {"measurement": "control of corn rust", "setting": "Puccinia sorghi; up to 0.20 mM", "value": "essentially ineffective"},
      {"measurement": "reduction of bean rust infection", "setting": "Uromyces phaseoli; even at 5.0 mM", "value": "ineffective"},
      {"measurement": "germination or pathogenicity of uredospores collected from treated plants", "setting": "Uromyces phaseoli; plants treated with low concentrations", "value": "no decrease in germination or pathogenicity"},
      {"measurement": "Lesions per cm^2", "setting": "Uromyces phaseoli; [10]", "value": "56 ± 3", "unit": "per cm^2"},
      {"measurement": "Lesions per leaf", "setting": "Uromyces phaseoli; [10]", "value": "2829 ± 242", "unit": "per leaf"},
      {"measurement": "Lesions per cm^2", "setting": "Uromyces phaseoli; [11]", "value": "50 ± 2", "unit": "per cm^2"},
      {"measurement": "Lesions per leaf", "setting": "Uromyces phaseoli; [11]", "value": "2195 ± 169", "unit": "per leaf"},
      {"measurement": "Lesions per cm^2", "setting": "Uromyces phaseoli; [12]", "value": "51 ± 4", "unit": "per cm^2"},
      {"measurement": "Lesions per leaf", "setting": "Uromyces phaseoli; [12]", "value": "3101 ± 217", "unit": "per leaf"},
      {"measurement": "Lesions per cm^2", "setting": "Uromyces phaseoli; [13]", "value": "46 ± 4", "unit": "per cm^2"},
      {"measurement": "Lesions per leaf", "setting": "Uromyces phaseoli; [13]", "value": "2928 ± 317", "unit": "per leaf"},
      {"measurement": "Percent control", "setting": "Erysiphe polygoni; 1 mM", "value": 7, "unit": "%"},
      {"measurement": "Percent control", "setting": "Erysiphe polygoni; 5 mM", "value": 35, "unit": "%"},
      {"measurement": "Percent control", "setting": "Erysiphe polygoni; 10 mM", "value": 35, "unit": "%"},
      {"measurement": "Uredia/plant", "setting": "[7]; 0.01 mM", "value": "74 Uredia/plant and 49 Uredia/plant"},
      {"measurement": "Uredia/plant", "setting": "[7]; 0.025 mM", "value": "62 Uredia/plant and 40 Uredia/plant"},
      {"measurement": "% control", "setting": "[7]; 0.065 mM", "value": "32% and 54%"},
      {"measurement": "Uredia/plant", "setting": "[7]; 0.065 mM", "value": "54 Uredia/plant and 37 Uredia/plant"},
      {"measurement": "% control", "setting": "[7]; 0.10 mM", "value": "37% and 51%"},
      {"measurement": "Uredia/plant", "setting": "[7]; 0.10 mM", "value": "50 Uredia/plant and 39 Uredia/plant"},
      {"measurement": "% control", "setting": "[7]; 0.13 mM", "value": "34% and 47%"},
      {"measurement": "Uredia/plant", "setting": "[7]; 0.13 mM", "value": "53 Uredia/plant and 42 Uredia/plant"},
      {"measurement": "% control", "setting": "[7]; 0.16 mM", "value": "39% and 49%"},
      {"measurement": "Uredia/plant", "setting": "[7]; 0.16 mM", "value": "49 Uredia/plant and 41 Uredia/plant"},
      {"measurement": "% control", "setting": "[7]; 0.20 mM", "value": "46% and 47%"},
      {"measurement": "Uredia/plant", "setting": "[7]; 0.20 mM", "value": "43 Uredia/plant and 42 Uredia/plant"},
      {"measurement": "% control", "setting": "[7]; 1.00 mM", "value": "57% and 77%"},
      {"measurement": "Uredia/plant", "setting": "[7]; 1.00 mM", "value": "34 Uredia/plant and 18 Uredia/plant"}
    ]}
  ]
}
